Data published in patent publication US12636386B2, “Compositions and methods for the treatment and imaging of cancer” (BOARD OF REGENTS OF THE UNIVERSITY OF NEBRASKA, priority 2021, dated 2026).
Values joined by “and” are separate entries in the source; they are usually repeats but may differ in a detail not shown here. Identical values can stand only once. Like-named read-outs stand apart in the source and are kept apart here.

Assays:
[1] = from Kortylewicz, et al. (2020) J Med Chem; cited from earlier work
[2] = from Kortylewicz, et al. (2020) J Med Chem; cited from earlier work; remark: listed apart in the source
[3] = biological target: T1, norepinephrine transporter (Homo sapiens, UniProt P23975); test: Competitive uptake assay with nonradioactive MIBG in SK-N-SH cells; format: cell-based; conditions: 50 μM nonradioactive MIBG; 25.8±0.7 kBq/ml GPAID; exponentially growing SK cell monolayers
T1 construct: These cells represent a well-established robust model for the NET-specific MIBG uptake; endogenous in cells; host or cells: SK (SK-N-SH) and BE (BE(2)-C) neuroblastoma cells, exponentially growing monolayers
Procedure: (§1) Cells were plated into T25 flasks and allowed to grow until ˜60%-70% confluent. Fresh medium (3 ml) was added to one set of flasks (n=4 per time). To the second set of flasks (n=4 per time), fresh medium (3 ml) containing 100-μM nonradioactive MIBG was added. All cells were returned to the incubator for 30 minutes, after which time 3 ml of medium containing GPAID (51.5±1.4 kBq/ml) was added to produce the final concentration of 50-μM MIBG and 25.8±0.7 kBq/ml GPAID. Cells were returned to the incubator for additional 1, 24, and 48 hours. At designated times, media were removed, monolayer washed 1× with full medium, 2× with PBS, and SK and BE cells were harvested with the nonenzymatic cell dissociation solution (Sigma-Aldrich). N1E cells were harvested by flushing the monolayer with spent media. Cell numbers were determined, and their radioactive content measured in a gamma counter. The whole cell uptake was calculated on terms of MBq per cells. The clonogenic survival was calculated as the ratio of the number of colonies produced by cells treated with nonradioactive MIBG and GPAID to the number of colonies produced by cells treated with GPAID only. The cell survival at 24 hours was expressed as the ratio of viable cells in treatment groups to cells in untreated controls.

[4] = biological target: T1, norepinephrine transporter; test: Competitive uptake assay with nonradioactive MIBG in BE(2)-C cells; format: cell-based; conditions: 50 μM nonradioactive MIBG; 25.8±0.7 kBq/ml GPAID; exponentially growing BE cell monolayers
Procedure: as §1

BE(2)-C cells [5] = test: Clonogenic survival of BE(2)-C cells; format: cell-based, human; conditions: on average
Procedure: as §1

NET = NET (Homo sapiens, UniProt P23975); conditions: Smets, et al. (1989) Cancer Res.; cited from earlier work
N1E-115 cells = test: Subcellular distribution in N1E-115 cells; format: cell-based, murine
Text: (§2) Two human NB cell lines SK-N-SH (SK) and BE(2)-C(BE) and one murine NB cell line N1E-115 (N1E) were purchased from the American Type Culture Collection (ATCC; Manassas, VA). Cells were maintained according to the vendor's instructions. For animal studies, cells were harvested when ˜70% confluent and cryopreserved until ready to use.
(§3) Established protocols were used in these experiment (Kortylewicz, et al. (2020) J Med Chem., 63:2051-2073; Baranowska-Kortylewicz, et al. (1994) J Label Compd Radiopharm., 34(6):513-521; Kortylewicz, et al. (2009) J Med Chem., 52(16):5124-5143). Briefly, NB cells plated in TPP T25 flasks (Midwest Scientific, Valley Park, MO) at 5×10^5 cells per flask were maintained in culture for 48-72 hours, depending on the doubling time of the cell line, until 60%-70% confluent. For time-dependent uptake studies, GPAID was added to the growth medium to produce the average concentrations of 28.2±5.5, 27.6±2.8, and 30.7±1.0 kBq/ml in SK, BE, and N1E cells, respectively. Radioactive medium was removed after 1, 5, 16, 24, and 48 hours in culture (n=4 per time). Cells were harvested by scraping and enumerated using Cellometer (Nexcelom Bioscience, Lawrence, MA). Cell suspensions were centrifuged for 10 minutes at 1500 rpm; cell pellets resuspended in ice-cold PBS, transferred into microfuge tubes, and centrifuged at 500×g for 10 minutes. The radioactive content of cell pellets was measured in a gamma counter. The cellular uptake was calculated in terms of MBq per cell. For subcellular fractionation experiments, NB cells grown as monolayers were treated with GPAID and processed as described (Kortylewicz, et al. (2020) J Med Chem., 63:2051-2073). In the concentration-dependent uptake experiments, GPAID in the appropriate medium at several concentrations was added to the cell monolayers. Cells were processed after 1-hour incubation. Radioactive medium was removed, and monolayers were washed once with full nonradioactive medium and PBS. Cells were harvested and enumerated, and their radioactive content was measured.

[6] = Ex vivo stability in human serum; format: in vitro ADME; conditions: 37° C., 5% CO2; average±SE; monoexponential fit of percent intact compound
Procedure: (§4) Aliquots of GPAID (1.4-2.3 MBq) in 120 μl of 25% EtOH/PB (10-mM, pH 6.1) were added to 6.88-ml phosphate-buffered saline (PBS), cell culture media, or serum (mouse, pig, or human). Mixtures were briefly vortexed and incubated at 37° C. and 5% CO2. At selected times, 1 ml of GPAID incubation mixture was withdrawn, 1-ml MeCN was added, and the mixture was vortexed and centrifuged at 2000 rpm for 15 minutes at 4° C. The supernatant was removed, and the radioactivity measured. Supernatant (250-500 μl) were acidified to pH˜6 with 0.05-N TFA (2-8 μl). The excess of MeCN was evaporated with a stream of nitrogen and 100 μl of water added. This mixture was passed through a 0.22-μm filter and 100 μl (111-185 kBq) injected onto the HPLC system. HPLC analysis of extracts proceeded on the ACE C18 100-A column ([…], 4.6×250 mm) eluted at 0.8 ml/minute with a linear gradient of MeCN from 10% to 95% over 45 minutes and kept at 95% MeCN for 15 minutes the radioactivity detection (Bioscan). Both solvents contained 0.07% TFA (v/v).
(§5) Ex vivo stability of GPAID was assessed in PBS, cell culture medium without NB cells, and in the presence of NB cells and in human, mouse, and porcine sera after various times of incubation. […] Half-lives in sera were calculated from the area under the peak of the intact GPAID recovered from the incubation mixtures plotted as a function of the incubation time. […]

[7] = Ex vivo stability in pig serum; format: in vitro ADME; conditions: 37° C., 5% CO2; average±SE; monoexponential fit of percent intact compound
Procedure: as §4, §5

[8] = Ex vivo stability in mouse serum; format: in vitro ADME; conditions: mouse serum contains esterases including carboxylesterase
Procedure: as §4, §5

Stability in PBS = format: physicochemical; conditions: 37° C.
Procedure: as §4, §5

[9] = Stability in cell culture medium without NB cells; format: physicochemical; conditions: 5% CO2
Procedure: as §4, §5

SK-N-SH cells [10] = test: Radioactive species in medium recovered from NB cell monolayers cultured with GPAID; format: cell-based, human
Procedure: as §4
Ex vivo stability of GPAID was assessed in PBS, cell culture medium without NB cells, and in the presence of NB cells and in human, mouse, and porcine sera after various times of incubation. The analytical details are provided hereinabove. Half-lives in sera were calculated from the area under the peak of the intact GPAID recovered from the incubation mixtures plotted as a function of the incubation time. The degradation curves followed the first-order kinetics. Data were fitted into the monoexponential equations with the intercept set at 100% (FIG. 2A). In a typical experiment, a final concentration of GPAID in serum approximated radioactivity levels of ^131IMIBG in blood of children receiving therapeutic doses (Pandit-Taskar, et al. (2017) Clin Nucl Med., 42(10):741-748; Matthay, et al. (1998) J Clin Oncol., 16(1):229-236). 0

[11] = system: BE(2)-C and SK-N-SH cells; test: Time- and concentration-dependent cellular uptake, statements covering both NB cell lines; format: cell-based, human
Text: as §2, §3

BE(2)-C cells [12] = test: Subcellular distribution in BE(2)-C cells; format: cell-based, human
Text: as §2, §3

SK-N-SH cells [13] = test: Subcellular distribution in SK-N-SH cells; format: cell-based, human
Text: as §2, §3

NB cells = test: Survival of NB cells, trypan blue exclusion method followed by clonogenic assay; format: cell-based, human; conditions: trypan blue exclusion and clonogenic assay; 25.8±0.7 kBq/ml
Procedure: as §1

N1E-115 tumors = test: Therapy of mice bearing IP N1E allografts; format: in vivo; conditions: single IP dose 3.64±0.10 MBq per mouse 1 week after implant; 14 days after treatment; NT controls 2.61±0.57 g; p=0.03
Procedure: Research involving animals was performed in accordance with the UNMC institutional guidelines and protocols as defined by the Institutional Animal Care and Use Committee for US institutions. Athymic NCr nude mice (spontaneous mutant) were purchased from Taconic (Rensselaer, NY). The intraperitoneal route […] was used for the tumor implant and dose administration. All experiments were conducted in mice of both genders 4 to 8 weeks old.
Four-week-old NCr nu/nu mice, male (n=10) and female (n=10), received IP implant of 5×10^6 N1E cells. One week later, mice were randomly assigned via a lottery to either control or treatment group. Control mice were given IP injection of the vehicle. Mice in the therapy group received a bolus IP injection of 3.64±0.10 MBq GPAID per mouse (˜145 MBq/kg body weight [bw]). Triplicate aliquots of the injected dose (ID) were counted in a gamma counter. Syringes containing the dose and syringes after the injection were weighed on the analytical balance to determine ID. Whole body radioactivity was also measured immediately after each injection to confirm ID. Necropsy was performed at the termination of the experiment. Blood was collected via cardiac puncture. […]
All variables are expressed as average±standard deviation or ±standard error. The cellular uptake, cell survival, and other biological properties were analyzed using two-sided Student's t test. […]

[14] = Hemoglobin and hematocrit in treated tumor-bearing mice; format: in vivo; conditions: mice treated with 3.64±0.10 MBq GPAID IP; termination necropsy
Text: (§6) Four-week-old NCr nu/nu mice, male (n=10) and female (n=10), received IP implant of 5×10^6 N1E cells. One week later, mice were randomly assigned via a lottery to either control or treatment group. Control mice were given IP injection of the vehicle. Mice in the therapy group received a bolus IP injection of 3.64±0.10 MBq GPAID per mouse (˜145 MBq/kg body weight [bw]). Triplicate aliquots of the injected dose (ID) were counted in a gamma counter. Syringes containing the dose and syringes after the injection were weighed on the analytical balance to determine ID. Whole body radioactivity was also measured immediately after each injection to confirm ID. Necropsy was performed at the termination of the experiment. Blood was collected via cardiac puncture. Aliquots were reserved for determination of hemoglobin (Hb; HemoCue, Ängelholm, Sweden) and hematocrit (Hct).

[15] = Biodistribution at necropsy 14 days after the dose; format: in vivo, mice; conditions: necropsy 14 days after the IP dose
Text: as §6

[16] = monoprotonated cation at physiological pH; cited from earlier work
[17] = N1E cells, 24-hour incubation, average 29±3 kBq/ml
[18] = incubated with exponentially growing NB cell monolayers for 24 hours
[19] = 1 hour with GPAID, washed, additional 4 hours in nonradioactive medium

T1 sequence (P23975 whole entry): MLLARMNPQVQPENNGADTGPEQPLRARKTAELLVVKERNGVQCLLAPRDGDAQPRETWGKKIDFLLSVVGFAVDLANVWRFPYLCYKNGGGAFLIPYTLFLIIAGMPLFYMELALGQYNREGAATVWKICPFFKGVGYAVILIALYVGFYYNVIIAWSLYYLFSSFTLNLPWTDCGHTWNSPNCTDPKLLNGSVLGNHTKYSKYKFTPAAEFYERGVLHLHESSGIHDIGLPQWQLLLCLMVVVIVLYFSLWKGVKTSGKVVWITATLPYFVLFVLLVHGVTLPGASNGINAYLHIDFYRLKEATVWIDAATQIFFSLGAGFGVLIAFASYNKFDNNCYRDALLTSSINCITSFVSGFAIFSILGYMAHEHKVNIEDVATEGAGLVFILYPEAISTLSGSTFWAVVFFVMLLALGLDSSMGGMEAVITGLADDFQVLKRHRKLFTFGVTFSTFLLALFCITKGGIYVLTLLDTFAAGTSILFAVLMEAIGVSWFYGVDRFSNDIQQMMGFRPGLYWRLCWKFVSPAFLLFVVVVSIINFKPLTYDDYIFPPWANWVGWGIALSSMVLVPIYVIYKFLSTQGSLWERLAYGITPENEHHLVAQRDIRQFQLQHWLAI
Chain of NET (P23975 whole entry): as above

N=C(N)NCCCCCC(=O)O[C@H]1C[C@H](n2cc([125I])c(=O)[nH]c2=O)O[C@@H]1CO [IDG, 5-[^125I]iodo-3′-O-(ε-guanidinohexanoyl)-2′-deoxyuridine]
Half-life in human serum [1]: 2.3 ± 0.1 h and ~2.3 h | Half-life in pig serum [2]: 3.6 ± 0.1 h

N=C(N)NCc1cccc([131I])c1 [MIBG, metaiodobenzylguanidine]
Inhibition of GPAID uptake [3]: 70% | Inhibition of GPAID uptake [4]: 85% | Colonies from cells exposed to nonradioactive MIBG alongside GPAID compared with GPAID alone (BE(2)-C cells [5]; 50-μM MIBG, 25.8±0.7 kBq/ml GPAID): 3 × | Concentration at which uptake begins to saturate (NET): > 500 nM | Concentration up to which uptake is linear (NET): ~100 nM

N=C(N)NCc1cccc([125I])c1 [^125IMIBG]
Recovery in the cytoplasmic fraction (N1E-115 cells; N1E cells, 24-hour incubation): majority | ^125I recovered in DNA (DNA pellet) (N1E-115 cells; [17]): 0% | ^125I retrieved in the soluble nuclear fraction (N1E-115 cells; [17]): ~19%

(R)-(−)-5-[^125I]Iodo-3′-O-[2-(ε-guanidinohexanoyl)-2-phenylacetyl]-2′-deoxyuridine [GPAID]
Half-life in human serum [6]: 7.9 ± 0.7 h | Half-life in pig serum [7]: 5.8 ± 2.1 h | Stability in mouse serum [8]: not stable | Stability in PBS (Stability in PBS): stable | Stability in cell culture in the absence of NB cells ([9]; 37° C.): stable | Intact GPAID remaining in cell culture medium without cells ([9]; 24 hours at 37° C.): > 90% | Total radioactivity in the form of either free ^125I or ^125I-uracil in medium (SK-N-SH cells [10]; SK-N-SH cells cultured with GPAID for 24 hours at 37° C., 5% CO2 (FIG. 2D)): ~30% | Intact GPAID in recovered media (SK-N-SH cells [10]; [18]): ~42% | ^125IUdR in recovered media (SK-N-SH cells [10]; [18]): ~28% | ^125I disintegrations accumulated in 24 hours ([11]; 1-hour exposure, all tested concentrations >0.015 MBq/ml): > 20 disintegrations per cell | Dependence of cellular radioactivity on extracellular concentration ([11]; 1-hour treatment, entire tested range up to 200 kBq/ml (2.45×10^−9 M)): directly proportional to the extracellular concentration of GPAID | Cellular uptake in BE cells compared with SK cells ([11]; 1 hour incubation, washed and processed immediately): nearly identical | Total cellular radioactivity associated with DNA (BE(2)-C cells [12]; [19]): > 95% | Total recovered ^125I in DNA (BE(2)-C cells [12]; after 1 hour with GPAID): 32% | ^125I associated with DNA (BE(2)-C cells [12]; at 24 hours): practically all | Total cellular radioactivity associated with DNA (SK-N-SH cells [13]; [19]): ~75% | Total recovered ^125I in DNA (SK-N-SH cells [13]; after 1 hour with GPAID): ~22% | ^125I associated with DNA (SK-N-SH cells [13]; at 24 hours): practically all | ^125I recovered in DNA (DNA pellet) (N1E-115 cells; [17]): > 99% | ^125I activity in the nuclei bound to DNA (N1E-115 cells; N1E-115 cells, 24-hour treatment, 29±3 kBq/ml (FIG. 3E)): ~100% | BE cells that survived, retained reproductive integrity and formed colonies (BE(2)-C cells [5]; GPAID extracellular concentration 25.8±0.7 kBq/ml): 32% | Survival of NB cells treated with GPAID alone (NB cells): significant reduction in survival | Average tumor weight at necropsy (N1E-115 tumors): 0.88 ± 0.54 g | HCt level [14]: within the normal range values | Hb level [14]: within the normal range values | Residual level in the adrenal glands [15]: 0.034±0.016 % ID/g | Radioactivity retention in tissues ([15]; all tissues): only marginal radioactivity retention | pKa [16]: ~12
